Source: patent publication US7582611B2, “Motilide compounds” (Pfizer Inc., priority 2005, dated 2009)
pEC50: −log10 of the molar value. Values after ≈ are worked out from the molar mass of the structure shown. Read-outs that look alike come from different tables or passages of the source.

What was measured:
Motilin Receptor = biological target: T1, Motilin Receptor (Oryctolagus cuniculus, UniProt G1T803); assay: Tissue based assay for motilin agonist potency (rabbit duodenum contractility); format: cell-based
T1 construct: strips of longitudinal smooth muscle were sliced from the segments; from tissue; host or cells: rabbit duodenum longitudinal smooth muscle strips
T1 sequence (G1T803 1-400): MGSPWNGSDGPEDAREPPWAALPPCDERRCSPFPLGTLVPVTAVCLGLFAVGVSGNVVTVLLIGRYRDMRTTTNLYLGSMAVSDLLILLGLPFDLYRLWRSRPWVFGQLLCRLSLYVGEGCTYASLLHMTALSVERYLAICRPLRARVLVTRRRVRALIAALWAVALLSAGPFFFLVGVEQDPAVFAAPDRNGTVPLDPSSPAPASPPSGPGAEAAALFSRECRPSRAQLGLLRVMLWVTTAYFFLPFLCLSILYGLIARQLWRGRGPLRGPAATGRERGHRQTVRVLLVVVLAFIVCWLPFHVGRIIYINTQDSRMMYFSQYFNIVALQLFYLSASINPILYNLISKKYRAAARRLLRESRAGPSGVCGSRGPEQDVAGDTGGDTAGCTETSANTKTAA
Summary of the method: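 Longitudinal smooth-muscle strips of rabbit duodenum, mucosa removed, in oxygenated Krebs at 37 °C under 1.5 g tension; auxotonic contractions. Cumulative doses at ~2 min intervals, then 1 μM carbachol; responses minus basal tension, normalized to carbachol, fitted to R=(Rmax·C)/(EC50+C) for EC50.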

[1] = tested on: Streptococcus pneumoniae ATCC 6301; assay: Evaluation of antibacterial activity (MIC, serial dilutions on 96-well microtiter plates); format: cell-based; settings: ATCC6301, read-out: Antibacterial Activity (MIC, μg/mL)
[2] = rabbit duodenum strips, contraction normalized to 1 μM carbachol, read-out: Motilin Receptor Agonist Activity (EC50)

pEC50 (Motilin Receptor; [2]) | MIC [1] [µg/mL] | Compound | pEC50 (Motilin Receptor)
6.89 | 128 (≈ 148 µM) | CC[C@H]1OC(=O)[C@H](C)[C@@H](O[C@H]2C[C@@](C)(OC)[C@@H](O)[C@H](C)O2)[C@H](C)[C@@H](O[C@@H]2O[C@H](C)C[C@H](N(C)C(C)C)[C@H]2O)[C@](C)(O)C[C@@H](C)[C@H](OCCNC(=O)OC)[C@H](C)[C@@H](O)[C@]1(C)O [Compound A-65] | 
6.66 | > 128 | CCNC(=S)NCCO[C@@H]1[C@H](C)[C@@H](O)[C@](C)(O)[C@@H](CC)OC(=O)[C@H](C)[C@@H](O[C@H]2C[C@@](C)(OC)[C@@H](O)[C@H](C)O2)[C@H](C)[C@@H](O[C@@H]2O[C@H](C)C[C@H](N(C)C(C)C)[C@H]2O)[C@](C)(O)C[C@H]1C [Compound A-67] | 
7.22 | 128 (≈ 142 µM) | CC[C@H]1OC(=O)[C@H](C)[C@@H](O[C@H]2C[C@@](C)(OC)[C@@H](O)[C@H](C)O2)[C@H](C)[C@@H](O[C@@H]2O[C@H](C)C[C@H](N(C)C(C)C)[C@H]2O)[C@](C)(O)C[C@@H](C)[C@H](OCC(=O)Nc2cnccn2)[C@H](C)[C@@H](O)[C@]1(C)O [Compound A-70] | 
7.05 | > 128 | CC[C@H]1OC(=O)[C@H](C)[C@@H](O[C@H]2C[C@@](C)(OC)[C@@H](O)[C@H](C)O2)[C@H](C)[C@@H](O[C@@H]2O[C@H](C)C[C@H](N(C)C(C)C)[C@H]2O)[C@](C)(O)C[C@@H](C)[C@H](OCC(=O)NC)[C@H](C)[C@@H](O)[C@H]1C [Compound A-71] | 
6.57 | > 128 | CC[C@H]1OC(=O)[C@H](C)[C@@H](O[C@H]2C[C@@](C)(OC)[C@@H](O)[C@H](C)O2)[C@H](C)[C@@H](O[C@@H]2O[C@H](C)C[C@H](N(C)C(C)C)[C@H]2O)[C@](C)(O)C[C@@H](C)[C@H](OCC(=O)N(C)C)[C@H](C)[C@@H](O)[C@H]1C [Compound A-72] | 
7.08 | 128 (≈ 148 µM) | CC[C@H]1OC(=O)[C@H](C)[C@@H](O[C@H]2C[C@@](C)(OC)[C@@H](O)[C@H](C)O2)[C@H](C)[C@@H](O[C@@H]2O[C@H](C)C[C@H](N(C)C(C)C)[C@H]2O)[C@](C)(O)C[C@@H](C)[C@H](OCCCC(=O)NC)[C@H](C)[C@@H](O)[C@]1(C)O [Compound A-73] | 
6.57 | 128 (≈ 146 µM) | CC[C@H]1OC(=O)[C@H](C)[C@@H](O[C@H]2C[C@@](C)(OC)[C@@H](O)[C@H](C)O2)[C@H](C)[C@@H](O[C@@H]2O[C@H](C)C[C@H](N(C)C(C)C)[C@H]2O)[C@](C)(O)C[C@@H](C)[C@H](OCCCCC(=O)NC)[C@H](C)[C@@H](O)[C@]1(C)O [Compound A-74] | 
6.54 | > 128 | CC[C@H]1OC(=O)[C@H](C)[C@@H](O[C@H]2C[C@@](C)(OC)[C@@H](O)[C@H](C)O2)[C@H](C)[C@@H](O[C@@H]2O[C@H](C)C[C@H](N(C)C(C)C)[C@H]2O)[C@](C)(O)C[C@@H](C)[C@H](OC(=O)N(C)C)[C@H](C)[C@@H](O)[C@H]1C [Compound A-75] | 
6.82 | 128 (≈ 144 µM) | CC[C@H]1OC(=O)[C@H](C)[C@@H](O[C@H]2C[C@@](C)(OC)[C@@H](O)[C@H](C)O2)[C@H](C)[C@@H](O[C@@H]2O[C@H](C)C[C@H](N(C)C(C)C)[C@H]2O)[C@](C)(O)C[C@@H](C)[C@H](OCCCCCC(=O)NC)[C@H](C)[C@@H](O)[C@]1(C)O [Compound A-76] | 
7.60 | > 128 | CC[C@H]1OC(=O)[C@H](C)[C@@H](O[C@H]2C[C@@](C)(OC)[C@@H](O)[C@H](C)O2)[C@H](C)[C@@H](O[C@@H]2O[C@H](C)C[C@H](N(C)C(C)C)[C@H]2O)[C@](C)(O)C[C@@H](C)[C@H](OCC(=O)Nc2ccncn2)[C@H](C)[C@@H](O)[C@]1(C)O [Compound A-77] | 
7.96 | 128 (≈ 169 µM) | CC[C@H]1OC(=O)[C@H](C)[C@@H](O[C@H]2C[C@@](C)(OC)[C@@H](O)[C@H](C)O2)[C@H](C)[C@@H](O[C@@H]2O[C@H](C)C[C@H](N(C)C(C)C)[C@H]2O)[C@@]2(C)CC(C)=C(O2)[C@H](C)C(=O)[C@]1(C)OC [GM-611, reference compound] | 
7.35 | > 128 | CC[C@@H](O)[C@@](C)(O)[C@@H]1OC(=O)[C@@H](C)[C@H](C[C@H]2C[C@@](C)(OC)[C@@H](O)[C@H](C)O2)[C@H](C)[C@@H](OC2O[C@H](C)C[C@H](N(C)C(C)C)[C@H]2O)[C@@]2(C)CC(C)=C(O2)[C@@H]1C (some centres unmarked) [KC-11458, reference compound] | 

Compound | pEC50 (Motilin Receptor; [2]) | MIC [1] [µg/mL] | pEC50 (Motilin Receptor)
CC[C@H]1OC(=O)[C@H](C)[C@@H](O[C@H]2C[C@@](C)(OC)[C@@H](O)[C@H](C)O2)[C@H](C)[C@@H](O[C@@H]2O[C@H](C)C[C@H](N(C)C)[C@H]2O)[C@](C)(O)C[C@@H](C)C(=O)[C@H](C)[C@@H](O)[C@]1(C)O [Erythromycin A, reference compound] |  | 0.0025 (≈ 0.00341 µM) | 5.92
